Experimental data reported in US20090194124A1, “Hair Shaping Kit and Process Comprising at Least One Non-Hydroxide Imine” (priority 2003, published 2009).

How the values were obtained:
[1] = pH of the simplified permanent-waving composition; assay type: physicochemical
Description: […]. The pH of the composition was 13.6. This composition was applied to Caucasian hair, wound beforehand onto curlers, for 15 minutes at a temperature of 30° C.
[…]. The pH of the composition was 13.5. This composition was applied to Caucasian hair, wound beforehand onto curlers, for 25 minutes at a temperature of 30° C.
(§1) A simplified permanent-waving composition was prepared, containing, as a permanent-waving active agent, 1,3,4,6,7,8-hexahydro-2H-pyrimido[1,2-a]pyrimidine (Registry Number [5807-14-7]) at a concentration of 0.7 M in water. The pH of the composition was 13.5. This composition was applied to Caucasian hair, wound beforehand onto curlers, for 15 minutes at a temperature of 30° C.
as §1, with “0.5M” for “0.7 M”, “13.4.” for “13.5.”, “20” for “15”

[2] = permanent-waving of hair wound onto curlers with a simplified aqueous composition; conditions: Caucasian hair wound onto curlers
Description: In the permanent shaping processes described herein, the composition is applied to wet or dry hair, wound beforehand onto rollers (curlers) having a diameter of from 2 mm to 30 mm. It is also possible to apply the composition as the hair is wound up. […] This composition was applied to Caucasian hair, wound beforehand onto curlers, for 15 minutes at a temperature of 30° C. […] This composition was applied to Caucasian hair, wound beforehand onto curlers, for 25 minutes at a temperature of 30° C. […] This composition was applied to Caucasian hair, wound beforehand onto curlers, for 15 minutes at a temperature of 30° C. […] This composition was applied to Caucasian hair, wound beforehand onto curlers, for 20 minutes at a temperature of 30° C.

Row | pH of the composition ([1]; 0.5M in water) | pH of the composition ([1]; 0.7 M in water) | Structure (SMILES) | result on the hair after permanent-waving (curl and feel) ([2]; 0.5M in water, applied 20 minutes at 30° C.) | result on the hair after permanent-waving (curl and feel) ([2]; 0.7 M in water, applied 15 minutes at 30° C.)
1 | 13.4 | 13.5 | C1CN=C2NCCCN2C1 [1,3,4,6,7,8-hexahydro-2H-pyrimido[1,2-a]pyrimidine] | beautifully curly and felt soft | beautifully curly and felt soft
2 | 13.5 | 13.6 | CN(C)C(=N)NC(=N)N [1,1-dimethylbiguanide] | – | –
